Experimental data: PMC7340670, “Phase I study of TAS-115, a novel oral multi-kinase inhibitor, in patients with advanced solid tumors” (Investigational New Drugs, 2019)
pIC50: −log10 of the molar value. “Also recorded” adds a separate entry of the source.

Experiments:
recombinant MET = tested on: recombinant MET; design: method as in PMID 24140932; settings: read-out: IC50 against recombinant MET; cited from earlier work
[1] = tested on: patients with advanced solid tumors; test: Phase I study (JapicCTI-132333): safety, tolerability, DLT, MTD, RP2D; type: in vivo
Experimental: This is an open-label, nonrandomized, dose-escalation study conducted at five sites in Japan. The study has three parts: a dose-escalation cohort using a traditional 3 + 3 design (part 1), a dosing schedule investigation cohort (part 2), and an expansion cohort to assess the safety at the MTD or lower doses among more patients (expansion part).
For each dose level in part 1, three to six patients were enrolled. DLTs were evaluated during the first cycle. […] The study drug was orally administered under empty stomach conditions (1 h before or 2 h after a meal) with a cup of water. […] In the expansion part, ≤MTD was investigated for exposure and safety.
All patients in parts 1 and 2 were required to be hospitalized for cycle 1 in order to observe AE. Patients continued to receive the study drug until disease progression or intolerable toxicity. […] The number of dose reductions was up to 2, and the minimum dose was 100 mg/day. […]

recombinant VEGFR2 = tested on: recombinant VEGFR2; design: method as in PMID 24140932; settings: read-out: IC50 against recombinant VEGFR2; cited from earlier work
[2] = Part 1, 200–800 mg/day, SID (N = 21), patients (%)
[3] = Part 2 + Expansion part, 450 or 650 mg/day, 5-on/2-off (N = 61), patients (%)
[4] = part 2 and expansion part (N = 61)

## CNC(=O)c1cc2c(Oc3ccc(NC(=S)NC(=O)Cc4ccccc4)cc3F)ccnc2cc1OC [TAS-115]
Recombinant MET
  pIC50: 7.49
[1]; 650 mg/day, early expansion part
  CRPC patients with AEs requiring dose reduction: five of six
[1]; [2]
  Treatment-related adverse events: Alanine aminotransferase increased, Any Grade: 11 (52.4)
  Treatment-related adverse events: Alanine aminotransferase increased, ≥ Grade 3: 0 (0.0)
  Treatment-related adverse events: Amylase increased, Any Grade: 8 (38.1)
  Treatment-related adverse events: Amylase increased, ≥ Grade 3: 3 (14.3)
  Treatment-related adverse events: Anemia, Any Grade: 2 (9.5)
  Treatment-related adverse events: Anemia, ≥ Grade 3: 2 (9.5)
  Treatment-related adverse events: Any Events, Any Grade: 21 (100.0)
  Treatment-related adverse events: Any Events, ≥ Grade 3: 13 (61.9)
  Treatment-related adverse events: Aspartate aminotransferase increased, Any Grade: 15 (71.4)
  Treatment-related adverse events: Aspartate aminotransferase increased, ≥ Grade 3: 0 (0.0)
  Treatment-related adverse events: Decreased appetite, Any Grade: 7 (33.3)
  Treatment-related adverse events: Decreased appetite, ≥ Grade 3: 1 (4.8)
  Treatment-related adverse events: Diarrhea, Any Grade: 3 (14.3)
  Treatment-related adverse events: Diarrhea, ≥ Grade 3: 0 (0.0)
  Treatment-related adverse events: Edema, Any Grade: 6 (28.6)
  Treatment-related adverse events: Edema, ≥ Grade 3: 0 (0.0)
  Treatment-related adverse events: Face edema, Any Grade: 6 (28.6)
  Treatment-related adverse events: Face edema, ≥ Grade 3: 0 (0.0)
  Treatment-related adverse events: Fatigue, Any Grade: 10 (47.6)
  Treatment-related adverse events: Fatigue, ≥ Grade 3: 0 (0.0)
  Treatment-related adverse events: Hypophosphatemia, Any Grade: 6 (28.6)
  Treatment-related adverse events: Hypophosphatemia, ≥ Grade 3: 5 (23.8)
  Treatment-related adverse events: Leukocytopenia, Any Grade: 8 (38.1)
  Treatment-related adverse events: Leukocytopenia, ≥ Grade 3: 2 (9.5)
  Treatment-related adverse events: Lipase increased, Any Grade: 6 (28.6)
  Treatment-related adverse events: Lipase increased, ≥ Grade 3: 5 (23.8)
  Treatment-related adverse events: Nausea, Any Grade: 7 (33.3)
  Treatment-related adverse events: Nausea, ≥ Grade 3: 0 (0.0)
  Treatment-related adverse events: Neutropenia, Any Grade: 8 (38.1)
  Treatment-related adverse events: Neutropenia, ≥ Grade 3: 3 (14.3)
  Treatment-related adverse events: Rash, Any Grade: 12 (57.1)
  Treatment-related adverse events: Rash, ≥ Grade 3: 2 (9.5)
  Treatment-related adverse events: Thrombocytopenia, Any Grade: 8 (38.1)
  Treatment-related adverse events: Thrombocytopenia, ≥ Grade 3: 1 (4.8)
  Treatment-related adverse events: Vomiting, Any Grade: 4 (19.0)
  Treatment-related adverse events: Vomiting, ≥ Grade 3: 0 (0.0)
[1]; [3]
  Treatment-related adverse events: Alanine aminotransferase increased, Any Grade: 23 (37.7)
  Treatment-related adverse events: Alanine aminotransferase increased, ≥ Grade 3: 1 (1.6)
  Treatment-related adverse events: Amylase increased, Any Grade: 10 (16.4)
  Treatment-related adverse events: Amylase increased, ≥ Grade 3: 1 (1.6)
  Treatment-related adverse events: Anemia, Any Grade: 21 (34.4)
  Treatment-related adverse events: Anemia, ≥ Grade 3: 9 (14.8)
  Treatment-related adverse events: Any Events, Any Grade: 60 (98.4)
  Treatment-related adverse events: Any Events, ≥ Grade 3: 47 (77.0)
  Treatment-related adverse events: Aspartate aminotransferase increased, Any Grade: 31 (50.8)
  Treatment-related adverse events: Aspartate aminotransferase increased, ≥ Grade 3: 4 (6.6)
  Treatment-related adverse events: Decreased appetite, Any Grade: 26 (42.6)
  Treatment-related adverse events: Decreased appetite, ≥ Grade 3: 6 (9.8)
  Treatment-related adverse events: Diarrhea, Any Grade: 14 (23.0)
  Treatment-related adverse events: Diarrhea, ≥ Grade 3: 0 (0.0)
  Treatment-related adverse events: Edema, Any Grade: 10 (16.4)
  Treatment-related adverse events: Edema, ≥ Grade 3: 0 (0.0)
  Treatment-related adverse events: Face edema, Any Grade: 11 (18.0)
  Treatment-related adverse events: Face edema, ≥ Grade 3: 0 (0.0)
  Treatment-related adverse events: Fatigue, Any Grade: 27 (44.3)
  Treatment-related adverse events: Fatigue, ≥ Grade 3: 1 (1.6)
  Treatment-related adverse events: Hypophosphatemia, Any Grade: 20 (32.8)
  Treatment-related adverse events: Hypophosphatemia, ≥ Grade 3: 13 (21.3)
  Treatment-related adverse events: Leukocytopenia, Any Grade: 18 (29.5)
  Treatment-related adverse events: Leukocytopenia, ≥ Grade 3: 7 (11.5)
  Treatment-related adverse events: Lipase increased, Any Grade: 9 (14.8)
  Treatment-related adverse events: Lipase increased, ≥ Grade 3: 4 (6.6)
  Treatment-related adverse events: Nausea, Any Grade: 26 (42.6)
  Treatment-related adverse events: Nausea, ≥ Grade 3: 1 (1.6)
  Treatment-related adverse events: Neutropenia, Any Grade: 21 (34.4)
  Treatment-related adverse events: Neutropenia, ≥ Grade 3: 15 (24.6)
  Treatment-related adverse events: Rash, Any Grade: 15 (24.6)
  Treatment-related adverse events: Rash, ≥ Grade 3: 1 (1.6)
  Treatment-related adverse events: Thrombocytopenia, Any Grade: 19 (31.1)
  Treatment-related adverse events: Thrombocytopenia, ≥ Grade 3: 9 (14.8)
  Treatment-related adverse events: Vomiting, Any Grade: 19 (31.1)
  Treatment-related adverse events: Vomiting, ≥ Grade 3: 1 (1.6)
[1]; SID, 5-on/2-off for 21 days per cycle, estimated
  recommended phase II dose (RP2D): 650 mg
[1]; any study part, during treatment or within 28 days of the last dose
  treatment-related death: No treatment-related death was observed
[1]; cohorts 650 mg and 800 mg in part 1
  patients with TRAEs leading to dose interruption: All the patients
[1]; expansion part
  Serious AEs: thirty one patients
  Serious TRAEs: decreased appetite (three patients), nausea (two patients), interstitial lung disease, rash, enterocolitis, fatigue, thrombocytopenia, and pyrexia (one patient each)
[1]; expansion part (650 mg), not considered related to TAS-115
  AEs resulted in death: hepatic failure, disease progression and respiratory failure occurred in one patient each
[1]; part 1
  Serious AEs: seven patients
  Serious TRAEs: tumor hemorrhage and decreased appetite (one patient, 650 mg each), thrombocytopenia (one patient, 800 mg)
  TRAEs that led to treatment discontinuation: rash (one patient, 800 mg)
[1]; part 1 (N = 21)
  Grade ≥3 TRAEs: 13 patients
[1]; part 1, 200 mg SID (N=3)
  Treatment-related adverse events: Any Events, Total: 3 (100.0) N (%)
  Treatment-related adverse events: Any Events, ≥ Grade 3: 1 (33.3) N (%)
  Treatment-related adverse events: Investigations, Total: 2 (66.7) N (%)
  Treatment-related adverse events: Investigations, ≥ Grade 3: 1 (33.3) N (%)
[1]; part 1, 300 mg SID (N=3)
  Treatment-related adverse events: Any Events, Total: 3 (100.0) N (%)
  Treatment-related adverse events: Any Events, ≥ Grade 3: 2 (66.7) N (%)
  Treatment-related adverse events: Investigations, Total: 2 (66.7) N (%)
  Treatment-related adverse events: Investigations, ≥ Grade 3: 2 (66.7) N (%)
[1]; part 1, 450 mg SID (N=3)
  Treatment-related adverse events: Any Events, Total: 3 (100.0) N (%)
  Treatment-related adverse events: Any Events, ≥ Grade 3: 2 (66.7) N (%)
  Treatment-related adverse events: Investigations, Total: 3 (100.0) N (%)
  Treatment-related adverse events: Investigations, ≥ Grade 3: 2 (66.7) N (%)
[1]; part 1, 650 mg SID
  treatment interruption during cycle 1: all patients who received 650 mg SID required treatment interruption; also recorded: all patients who received 650 mg SID had treatment interruption
[1]; part 1, 650 mg SID (N=6)
  Treatment-related adverse events: Any Events, Total: 6 (100.0) N (%)
  Treatment-related adverse events: Any Events, ≥ Grade 3: 5 (83.3) N (%)
  Treatment-related adverse events: Investigations, Total: 6 (100.0) N (%)
  Treatment-related adverse events: Investigations, ≥ Grade 3: 3 (50.0) N (%)
[1]; part 1, 800 mg SID (N=6)
  Treatment-related adverse events: Any Events, Total: 6 (100.0) N (%)
  Treatment-related adverse events: Any Events, ≥ Grade 3: 3 (50.0) N (%)
  Treatment-related adverse events: Investigations, Total: 4 (66.7) N (%)
  Treatment-related adverse events: Investigations, ≥ Grade 3: 1 (16.7) N (%)
[1]; part 1, 200–800 mg SID
  dose dependence of TRAEs: no dose-dependent increase in the incidence and grade of TRAEs was observed
[1]; part 1, 200–800 mg SID, 21 patients
  DLTs overall: Three dose-limiting toxicities; also recorded: three DLTs
[1]; part 1, SID, 21 days per cycle, granule formulation
  maximum tolerated dose (MTD): 650 mg
[1]; part 1, cycle 1, N = 6
  DLTs at 650 mg SID: grade 3 rash in one patient
  DLTs at 800 mg SID: grade 3 thrombocytopenia with bleeding and grade 3 rash each in one patient
[1]; part 2
  Serious AEs: two patients
  Serious TRAEs: peritonitis (one patient)
[1]; part 2, 650 mg SID 5-on/2-off
  treatment interruption in cycle 1: no patients required treatment interruption
[1]; part 2, cycle 1, six patients
  DLTs at 650 mg SID 5-on/2-off: No DLTs were observed; also recorded: no DLTs were reported
[1]; part 2 and expansion part
  TRAEs that led to treatment discontinuation: rash (two patients, 650 mg), pyrexia, peritonitis and neutropenia (one patient each, 650 mg)
[1]; [4]
  TRAE anemia, any grade: 34.4%
  TRAE decreased appetite, any grade: 42.6%
  TRAE fatigue, any grade: 44.3%
  TRAE hypophosphatemia, any grade: 32.8%
  TRAE increased ALT, any grade: 37.7%
  TRAE increased AST, any grade: 50.8%
  TRAE nausea, any grade: 42.6%
  TRAE neutropenia, any grade: 34.4%
  TRAE thrombocytopenia, any grade: 31.1%
  TRAE vomiting, any grade: 31.1%
  grade ≥3 TRAE anemia: 14.8%
  grade ≥3 TRAE hypophosphatemia: 21.3%
  grade ≥3 TRAE leukocytopenia: 11.5%
  grade ≥3 TRAE neutropenia: 24.6%
  grade ≥3 TRAE thrombocytopenia: 14.8%
[1]; part 2 and the expansion part
  frequency of TRAEs leading to dose interruption: approximately 77%
[1]; patients with advanced solid tumors, up to 650 mg 5-on/2-off
  tolerability: generally well tolerated
Recombinant VEGFR2
  pIC50: 7.52
